Measurements as given in ChEMBL document CHEMBL4834472 (J Med Chem, 2021).
Active and inactive are the calls of the source. The rule behind the calls is not given here.

Legend:
MOLM-13 = assay: Antiproliferative activity against human MOLM-13 cells assessed as cell death measured after 72 hrs by resazurin dye based assay; assay type: functional; conditions: MOLM-13, 72 h
[1] = target: Receptor-type tyrosine-protein kinase FLT3 (Homo sapiens, UniProt P36888, F691L); assay: Binding affinity to human partial length FLT3 ITD F691L mutant expressed in mammalian expression system by KdELECT Discover assay
[2] = target: Dual specificity protein kinase CLK1 (Homo sapiens) (UniProt P49759); assay: Inhibition of CLK1 (unknown origin) assessed as residual activity at 500 nM
[3] = target: T1, Receptor-type tyrosine-protein kinase FLT3 (Homo sapiens, UniProt P36888, ITD); assay: Binding affinity to human partial length FLT3 ITD mutant expressed in bacterial expression system by KdELECT Discover assay
MOLM-14 [4] = assay: Antiproliferative activity against human MOLM-14 cells harboring F691L mutant assessed as cell death measured after 72 hrs by resazurin dye based assay; assay type: functional; conditions: MOLM-14, 72 h
[5] = target: T1, Receptor-type tyrosine-protein kinase FLT3
MV4-11 [6] = assay: Induction of apoptosis in human MV4-11 cells assessed as caspase 3 activation using fluorescent substrate Ac-DEVD-AMC at 100 nM incubated for 24 hrs by Western blot analysis; assay type: functional, cell-based
MV4-11 [7] = assay: Induction of apoptosis in human MV4-11 cells assessed as increase in cleaved PARP1 level at 100 nM incubated for 24 hrs by Western blot analysis; assay type: functional, cell-based
MOLM-14 [8] = assay: Antiproliferative activity against human MOLM-14 cells assessed as cell death measured after 72 hrs by resazurin dye based assay; assay type: functional; conditions: MOLM-14, 72 h
U-937 = assay: Antiproliferative activity against human U-937 cells assessed as cell death measured after 72 hrs by resazurin dye based assay; assay type: functional; conditions: U-937, 72 h
CDK2/Cyclin A1 = CDK2/Cyclin A1 (Homo sapiens, UniProt P24941); assay type: protein-complex assay
Description: Inhibition of CDK2/Cyclin A1 (unknown origin) at 1 uM using histone H1 as substrate preincubated for 20 mins followed by 33P-ATP addition and measured after 2 hrs by filter binding method

MV4-11 [9] = assay: cells; conditions: Homo sapiens, MV4-11, 72 h
Description: Antiproliferative activity against human MV4-11 cells assessed as cell death measured after 72 hrs by resazurin dye based assay

BaF3 = assay: Antiproliferative activity against mouse BaF3 cells harboring FLt3 ITD mutant assessed as cell death measured after 72 hrs by resazurin dye based assay; assay type: functional; conditions: BaF3, 72 h
[10] = target: Receptor-type tyrosine-protein kinase FLT3 (Homo sapiens, UniProt P36888, D835V); assay: Binding affinity to human partial length FLT3 ITD D835V mutant expressed in mammalian expression system by KdELECT Discover assay
THP-1 = assay: Antiproliferative activity against human THP-1 cells assessed as cell death measured after 72 hrs by resazurin dye based assay; assay type: functional; conditions: THP-1, 72 h
[11] = system: Receptor-type tyrosine-protein kinase FLT3 (Homo sapiens), P36888 [UNDEFINED MUTATION]; assay: Inhibition of FLT3 ITD (unknown origin) assessed as residual activity at 500 nM
[12] = target: Cyclin-dependent kinase 4/cyclin D1 (Homo sapiens, UniProt P11802); assay: Inhibition of CDK4/cyclin D1 (unknown origin) in presence of [32P]gammaATP by image analyser; assay type: protein-complex assay
CDK2/Cyclin A2 = CDK2/Cyclin A2 (Homo sapiens, UniProt P24941); assay: Inhibition of CDK2/cyclin A2 (unknown origin) in presence of [32P]gammaATP by image analyser; assay type: protein-complex assay
[13] = target: NT-3 growth factor receptor (Homo sapiens) (UniProt Q16288); assay: Inhibition of TRKC (unknown origin) assessed as residual activity at 500 nM
MV4-11 [14] = assay: Induction of apoptosis in human MV4-11 cells assessed as decrease in MCL1 level at 100 nM incubated for 24 hrs by Western blot analysis; assay type: functional, cell-based
CCRF-CEM = assay: Antiproliferative activity against human CCRF-CEM cells assessed as cell death measured after 72 hrs by resazurin dye based assay; assay type: functional
[15] = target: Maternal embryonic leucine zipper kinase (Homo sapiens) (UniProt Q14680); assay: Inhibition of MELK (unknown origin) assessed as residual activity at 500 nM
[16] = target: Receptor-type tyrosine-protein kinase FLT3 (Homo sapiens) (UniProt P36888); assay: Inhibition of FLT3 autophosphorylation in human MV4-11 cells at 20 to 100 nM incubated for 1 hrs by Western blot analysis; assay type: cell-based; conditions: dose 20-100 nM
MV4-11 [17] = assay: Induction of apoptosis in human MV4-11 cells assessed as caspase 7 activation using fluorescent substrate Ac-DEVD-AMC at 100 nM incubated for 24 hrs by Western blot analysis; assay type: functional, cell-based
[18] = target: T2, Receptor-type tyrosine-protein kinase FLT3 (Homo sapiens, UniProt P36888); assay: Inhibition of wild type FLT3 (unknown origin) using AGLT peptide substrate in presence of [32P]gammaATP by image analyser
T2 sequence (P36888 whole entry): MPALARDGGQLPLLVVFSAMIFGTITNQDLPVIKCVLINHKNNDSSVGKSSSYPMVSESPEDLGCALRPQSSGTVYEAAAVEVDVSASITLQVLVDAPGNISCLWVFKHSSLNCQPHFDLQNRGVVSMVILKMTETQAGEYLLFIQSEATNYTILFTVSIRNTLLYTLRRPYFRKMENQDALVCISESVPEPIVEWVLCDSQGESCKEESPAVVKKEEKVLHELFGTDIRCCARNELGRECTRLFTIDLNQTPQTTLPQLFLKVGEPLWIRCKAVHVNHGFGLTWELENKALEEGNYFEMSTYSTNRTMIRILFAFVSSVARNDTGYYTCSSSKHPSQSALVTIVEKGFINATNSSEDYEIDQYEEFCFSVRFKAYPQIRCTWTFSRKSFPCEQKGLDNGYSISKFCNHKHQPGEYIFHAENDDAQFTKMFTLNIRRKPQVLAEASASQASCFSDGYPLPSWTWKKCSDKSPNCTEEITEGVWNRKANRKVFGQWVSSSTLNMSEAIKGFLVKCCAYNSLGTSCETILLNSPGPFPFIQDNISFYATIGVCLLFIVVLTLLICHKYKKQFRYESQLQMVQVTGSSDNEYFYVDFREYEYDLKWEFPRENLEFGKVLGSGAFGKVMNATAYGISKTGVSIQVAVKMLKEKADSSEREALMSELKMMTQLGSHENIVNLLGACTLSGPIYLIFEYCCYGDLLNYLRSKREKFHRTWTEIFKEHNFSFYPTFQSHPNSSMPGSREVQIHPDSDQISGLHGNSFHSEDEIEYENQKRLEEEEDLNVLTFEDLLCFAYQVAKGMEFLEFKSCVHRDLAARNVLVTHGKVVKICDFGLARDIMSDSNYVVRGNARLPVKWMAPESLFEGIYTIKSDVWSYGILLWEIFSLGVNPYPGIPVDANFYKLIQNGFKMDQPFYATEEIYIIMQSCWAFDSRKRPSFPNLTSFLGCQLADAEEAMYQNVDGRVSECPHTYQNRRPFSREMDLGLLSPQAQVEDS

CDK9/cyclin T1 = CDK9/cyclin T1 (Homo sapiens, UniProt P50750); assay: Inhibition of CDK9/cyclin T1 (unknown origin) in presence of [32P]gammaATP by image analyser; assay type: protein-complex assay
Sequence of CDK9/cyclin T1 (O60563 whole entry): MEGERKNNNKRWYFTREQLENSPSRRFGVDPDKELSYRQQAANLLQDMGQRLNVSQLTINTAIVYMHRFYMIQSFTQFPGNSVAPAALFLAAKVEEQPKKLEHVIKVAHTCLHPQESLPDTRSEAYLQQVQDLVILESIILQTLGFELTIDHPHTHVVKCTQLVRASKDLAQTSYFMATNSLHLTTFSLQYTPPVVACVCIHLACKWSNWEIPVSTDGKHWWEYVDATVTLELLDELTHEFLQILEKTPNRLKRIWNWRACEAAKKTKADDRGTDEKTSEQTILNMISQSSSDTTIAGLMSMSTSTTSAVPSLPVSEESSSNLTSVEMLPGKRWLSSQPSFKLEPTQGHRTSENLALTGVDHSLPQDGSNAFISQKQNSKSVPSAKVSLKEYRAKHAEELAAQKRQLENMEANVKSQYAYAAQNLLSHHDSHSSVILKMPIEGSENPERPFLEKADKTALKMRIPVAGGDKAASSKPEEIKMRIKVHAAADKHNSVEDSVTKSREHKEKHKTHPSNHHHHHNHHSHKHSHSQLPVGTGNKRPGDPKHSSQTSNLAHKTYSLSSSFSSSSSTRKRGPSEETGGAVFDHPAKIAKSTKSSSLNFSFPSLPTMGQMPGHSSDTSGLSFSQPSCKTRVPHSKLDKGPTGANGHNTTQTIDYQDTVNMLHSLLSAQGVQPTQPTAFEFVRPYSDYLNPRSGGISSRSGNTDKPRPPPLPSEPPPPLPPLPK
Sequence of CDK9/cyclin T1 (P50750 whole entry): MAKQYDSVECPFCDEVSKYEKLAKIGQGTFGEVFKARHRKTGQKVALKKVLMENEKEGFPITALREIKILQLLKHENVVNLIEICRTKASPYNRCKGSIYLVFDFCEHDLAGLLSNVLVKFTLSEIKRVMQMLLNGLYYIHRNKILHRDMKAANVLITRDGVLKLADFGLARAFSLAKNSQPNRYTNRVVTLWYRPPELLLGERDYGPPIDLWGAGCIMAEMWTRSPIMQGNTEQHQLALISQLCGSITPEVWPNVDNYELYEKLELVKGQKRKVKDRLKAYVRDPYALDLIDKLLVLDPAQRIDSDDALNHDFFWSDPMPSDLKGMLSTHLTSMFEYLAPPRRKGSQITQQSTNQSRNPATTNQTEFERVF

Sequence of Cyclin-dependent kinase 4/cyclin D1 (P11802 whole entry): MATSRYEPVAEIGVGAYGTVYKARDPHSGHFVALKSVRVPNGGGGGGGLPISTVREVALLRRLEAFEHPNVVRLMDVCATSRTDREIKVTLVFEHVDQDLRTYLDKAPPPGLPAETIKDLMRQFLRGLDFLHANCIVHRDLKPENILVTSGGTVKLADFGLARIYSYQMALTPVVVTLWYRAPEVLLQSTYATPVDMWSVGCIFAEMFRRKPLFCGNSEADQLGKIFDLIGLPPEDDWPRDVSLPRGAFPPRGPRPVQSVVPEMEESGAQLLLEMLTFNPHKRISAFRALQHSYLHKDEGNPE
Sequence of Cyclin-dependent kinase 4/cyclin D1 (P24385 whole entry, further chain): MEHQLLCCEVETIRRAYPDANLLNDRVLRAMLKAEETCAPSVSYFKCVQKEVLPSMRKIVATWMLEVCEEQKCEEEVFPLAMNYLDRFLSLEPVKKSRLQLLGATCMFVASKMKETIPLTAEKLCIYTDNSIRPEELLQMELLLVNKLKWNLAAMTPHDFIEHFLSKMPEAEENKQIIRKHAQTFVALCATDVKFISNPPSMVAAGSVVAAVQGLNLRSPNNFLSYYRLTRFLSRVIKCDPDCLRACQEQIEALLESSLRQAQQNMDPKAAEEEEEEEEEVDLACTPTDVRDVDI
Sequence of Dual specificity protein kinase CLK1 (Homo sapiens) (P49759 whole entry, looked up): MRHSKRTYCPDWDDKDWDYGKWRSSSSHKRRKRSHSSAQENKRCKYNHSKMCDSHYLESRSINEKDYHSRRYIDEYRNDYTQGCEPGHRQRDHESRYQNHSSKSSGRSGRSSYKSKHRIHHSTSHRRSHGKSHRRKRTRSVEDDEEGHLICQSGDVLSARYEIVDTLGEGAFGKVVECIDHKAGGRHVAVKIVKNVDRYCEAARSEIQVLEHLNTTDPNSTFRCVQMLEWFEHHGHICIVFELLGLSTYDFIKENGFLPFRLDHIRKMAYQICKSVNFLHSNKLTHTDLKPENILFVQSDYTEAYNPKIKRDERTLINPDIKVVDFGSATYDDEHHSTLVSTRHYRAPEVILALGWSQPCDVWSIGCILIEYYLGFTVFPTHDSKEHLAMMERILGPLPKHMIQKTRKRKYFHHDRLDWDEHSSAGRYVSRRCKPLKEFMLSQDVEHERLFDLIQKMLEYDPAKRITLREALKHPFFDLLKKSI
Sequence of Maternal embryonic leucine zipper kinase (Homo sapiens) (Q14680 whole entry, looked up): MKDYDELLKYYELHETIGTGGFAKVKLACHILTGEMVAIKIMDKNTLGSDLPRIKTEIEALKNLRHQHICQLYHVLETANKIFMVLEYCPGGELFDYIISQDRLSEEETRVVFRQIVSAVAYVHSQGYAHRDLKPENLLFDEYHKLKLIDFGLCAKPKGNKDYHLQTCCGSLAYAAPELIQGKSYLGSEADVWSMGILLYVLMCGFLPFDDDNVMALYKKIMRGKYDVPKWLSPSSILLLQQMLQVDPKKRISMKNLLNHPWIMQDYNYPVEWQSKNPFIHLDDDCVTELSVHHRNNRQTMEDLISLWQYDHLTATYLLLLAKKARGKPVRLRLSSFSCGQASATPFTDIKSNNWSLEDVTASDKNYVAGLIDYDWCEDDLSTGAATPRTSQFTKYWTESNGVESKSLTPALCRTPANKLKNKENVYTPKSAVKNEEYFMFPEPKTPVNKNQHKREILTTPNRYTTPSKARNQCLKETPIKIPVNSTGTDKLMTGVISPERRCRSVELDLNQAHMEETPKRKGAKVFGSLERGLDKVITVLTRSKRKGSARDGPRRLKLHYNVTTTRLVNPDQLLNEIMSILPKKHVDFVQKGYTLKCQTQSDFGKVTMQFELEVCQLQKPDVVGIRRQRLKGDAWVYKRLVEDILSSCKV
Sequence of NT-3 growth factor receptor (Homo sapiens) (Q16288 32-839 limits assumed): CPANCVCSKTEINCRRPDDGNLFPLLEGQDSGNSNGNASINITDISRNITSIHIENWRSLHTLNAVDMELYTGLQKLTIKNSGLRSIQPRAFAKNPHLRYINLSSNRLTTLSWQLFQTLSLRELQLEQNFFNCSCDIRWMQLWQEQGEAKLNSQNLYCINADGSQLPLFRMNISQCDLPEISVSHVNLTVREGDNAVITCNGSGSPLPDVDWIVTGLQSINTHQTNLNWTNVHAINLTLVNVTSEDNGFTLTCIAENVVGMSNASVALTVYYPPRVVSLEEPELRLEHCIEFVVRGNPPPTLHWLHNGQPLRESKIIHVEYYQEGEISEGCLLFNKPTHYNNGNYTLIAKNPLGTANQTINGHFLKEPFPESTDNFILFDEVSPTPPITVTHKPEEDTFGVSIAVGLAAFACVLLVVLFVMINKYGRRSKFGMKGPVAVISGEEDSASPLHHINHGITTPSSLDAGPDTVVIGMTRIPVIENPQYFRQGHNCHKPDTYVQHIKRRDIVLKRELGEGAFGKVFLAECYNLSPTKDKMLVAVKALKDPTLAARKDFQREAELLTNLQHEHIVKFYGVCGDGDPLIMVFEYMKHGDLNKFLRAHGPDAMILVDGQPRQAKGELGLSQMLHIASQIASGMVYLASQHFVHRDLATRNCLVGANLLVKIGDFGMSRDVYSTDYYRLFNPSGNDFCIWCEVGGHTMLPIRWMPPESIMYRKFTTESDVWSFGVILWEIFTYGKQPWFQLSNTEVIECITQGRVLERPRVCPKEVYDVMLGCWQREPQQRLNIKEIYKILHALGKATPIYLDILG

`Cc1n[nH]c2ccc3nc(-c4c[nH]nc4C(F)(F)F)c4c(c3c12)CCCC4` gave an IC50 (MOLM-13) of 68 nM, a Kd [1] of 1.3 nM and an Activity [2] of 4%. It also gave a Kd [3] of 1.6 nM, an IC50 (MOLM-14 [4]) of 53 nM and an IC50 [5] of 6 nM. For the same compound, the Activity (MV4-11 [6]) was “Active”, the Activity (MV4-11 [7]) was “Active” and the IC50 (MOLM-14 [8]) was 26 nM. The IC50 (U-937) was 2880 nM, the IC50 (CDK2/Cyclin A1) was 430 nM and the IC50 (MV4-11 [9]) was 70 nM. It also gave an IC50 (BaF3) of 62 nM, a Kd [10] of 0.73 nM and an IC50 (THP-1) of 6800 nM. The Activity [11] was < 2.5%, the IC50 [12] was > 1000 nM and the IC50 (CDK2/Cyclin A2) was 430 nM. For the same compound, the Activity [13] was 4%, the Activity (MV4-11 [14]) was “Active” and the IC50 (CCRF-CEM) was 6510 nM. The Activity [15] was 4%, the inhibition [16] was “Active” and the Activity (MV4-11 [17]) was “Active”. The IC50 [18] was 25 nM and the IC50 (CDK9/cyclin T1) was > 1000 nM.
